These compounds were tested against T1, GPR84 (Homo sapiens, UniProt Q9NQS5) (assay: GPR84 [35S]GTPγS binding assay). Conditions: 3,3′-diindolylmethane at EC80; membranes from stable cell line over expressing GPR84.
T1 construct: expressed in transfected cells
Format: biochemical
Description: The following assay can be used for determination of GPR84 activation. The [^35S]GTPγS binding assay measures the level of G protein activation following agonist occupation of a GPCR, by determining the binding of the non-hydrolysable analog [^35S]GTPγS to Gα subunits.
The assay is performed in a 96-well plate where the following reagents are added. First 50 μL compound is added into the assay plate, followed by addition of 20 μL 3,3′-diindolylmethane at EC80 concentration (concentration which gives 80% of the activity of GPR84). Then, 30 μL of a mixture consisting of membranes-GTPγS-SpA beads is added [mixture consists of 20 μg/well membranes derived from stable cell line over expressing GPR84 (membranes are pre-incubated with 0.1 μM GDP for 15 min at 4° C.), 0.1 nM [^35S]GTPγS (Perkin Elmer, NEG030) and 0.5 mg/well PVT-WGA SpA beads (Perkin Elmer, RPNQ0001)]. All components are diluted in assay buffer containing 20 mM Tris pH 7.5; 5 mM MgCl2; 250 mM NaCl; 0.05% BSA; 75 μg/mL saponin. After an incubation of 90 min at room temperature, 20 μL CsCl2 0.8 M (MP Biomedicals, 02150589) is added, followed by centrifugation at 2000 rpm during 20 min. Plates are read on a topcount reader (perkin elmer) immediately after centrifugation (readout time, 1 min/well).

T1 sequence (Q9NQS5 whole entry): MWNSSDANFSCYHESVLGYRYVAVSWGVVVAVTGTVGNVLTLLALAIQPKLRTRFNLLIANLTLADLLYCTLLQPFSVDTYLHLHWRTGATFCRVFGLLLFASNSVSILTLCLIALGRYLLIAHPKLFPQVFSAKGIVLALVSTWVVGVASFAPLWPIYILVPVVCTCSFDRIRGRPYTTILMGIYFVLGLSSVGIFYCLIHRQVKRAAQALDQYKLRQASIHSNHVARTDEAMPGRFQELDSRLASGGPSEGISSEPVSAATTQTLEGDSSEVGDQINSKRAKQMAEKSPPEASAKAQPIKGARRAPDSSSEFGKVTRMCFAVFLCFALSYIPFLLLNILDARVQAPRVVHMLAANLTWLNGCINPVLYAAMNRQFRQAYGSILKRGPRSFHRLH

IC50, > 1000 nM:
COc1cc2c(cc1OC)-c1c(C)c(=O)cc(NCC3CCCO3)n1CC2 (stereo not drawn) [Compound 2, 9,10-dimethoxy-1-methyl-4-(tetrahydrofuran-2-ylmethylamino)-6,7-dihydrobenzo[a]quinolizin-2-one]
CCc1c2n(c(NCC3CCCO3)cc1=O)CCc1cc(O)ccc1-2 (stereo not drawn) [Compound 3, 1-ethyl-9-hydroxy-4-(tetrahydrofuran-2-ylmethylamino)-6,7-dihydrobenzo[a]quinolizin-2-one]
COc1cc2c(cc1OC)-c1cc(=O)cc(NCC3COCCO3)n1CC2 (stereo not drawn) [Compound 5, 4-[([1,4]Dioxan-2-ylmethyl)-amino]-9,10-dimethoxy-6,7-dihydro-pyrido[2,1-a]isoquinolin-2-one]
Cc1c2n(c(OCC3CCCO3)cc1=O)CCc1cc(OCCN(C)C)ccc1-2 (stereo not drawn) [Compound 53, 9-(2-dimethylaminoethyloxy)-1-methyl-4-(tetrahydrofuran-2-ylmethoxy)-6,7-dihydrobenzo[a]quinolizin-2-one]
Cc1c2n(c(OC[C@@H]3COCCO3)cc1=O)CCc1cc(N3CCNCC3)ccc1-2 [Compound 66, 4-[[(2S)-1,4-dioxan-2-yl]methoxy]-1-methyl-9-piperazin-1-yl-6,7-dihydrobenzo[a]quinolizin-2-one]
Cc1c2n(c(OC[C@@H]3COCCO3)cc1=O)CCc1cc(C(=O)NC3CC3)ccc1-2 [Compound 84, N-cyclopropyl-4-[[(2S)-1,4-dioxan-2-yl]methoxy]-1-methyl-2-oxo-6,7-dihydrobenzo[a]quinolizine-9-carboxamide]
Cc1c2n(c(OC[C@@H]3COCCO3)cc1=O)CCc1cc(C(=O)N(C)C3CC3)ccc1-2 [Compound 88, N-cyclopropyl-4-[[(2)S-1,4-dioxan-2-yl]methoxy]-N,1-dimethyl-2-oxo-6,7-dihydrobenzo[a]quinolizine-9-carboxamide]

IC50, 500 to 1000 nM:
Cc1c2n(c(OCC3CCCCO3)cc1=O)CCc1cc(OCCN(C)C)ccc1-2 (stereo not drawn) [Compound 54, 9-(2-dimethylaminoethyloxy)-1-methyl-4-(tetrahydropyran-2-ylmethoxy)-6,7-dihydrobenzo[a]quinolizin-2-one]
Cc1c2n(c(OC[C@@H]3COCCO3)cc1=O)CCc1cc(OCCN(C)C)ccc1-2 [Compound 55, 9-(2-dimethylaminoethyloxy)-4-[[(2S)-1,4-dioxan-2-yl]methoxy]-1-methyl-6,7-dihydrobenzo[a]quinolizin-2-one]
Cc1c2n(c(OC[C@@H]3COCCO3)cc1=O)CCc1cc(N3CC4(COC4)C3)ccc1-2 [Compound 87, 4-[[(2S)-1,4-dioxan-2-yl]methoxy]-1-methyl-9-(6-oxa-2-azaspiro[3.3]heptan-2-yl)-6,7-dihydrobenzo[a]quinolizin-2-one]
Cc1c2n(c(OC[C@@H]3COCCO3)cc1=O)CCc1cc(N3CC(S(C)(=O)=O)C3)ccc1-2 [Compound 94, 4-[[(2S)-1,4-dioxan-2-yl]methoxy]-1-methyl-9-(3-methylsulfonylazetidin-1-yl)-6,7-dihydrobenzo[a]quinolizin-2-one]

IC50, 0.01 to 100 nM:
Cc1c2n(c(OCC3CCCO3)cc1=O)CCc1cc(OCC3CCCOC3)ccc1-2 (stereo not drawn) [Compound 47, 1-methyl-4-(tetrahydrofuran-2-ylmethoxy)-9-(tetrahydropyran-3-ylmethoxy)-6,7-dihydrobenzo[a]quinolizin-2-one]
Cc1c2n(c(OC[C@@H]3CCCO3)cc1=O)CCc1cc(OCc3ccccn3)ccc1-2 [Compound 57, 1-methyl-9-(2-pyridylmethoxy)-4-[[(2S)-tetrahydrofuran-2-yl]methoxy]-6,7-dihydrobenzo[a]quinolizin-2-one]
Cc1c2n(c(OC[C@@H]3COCCO3)cc1=O)CCc1cc(OC(F)F)ccc1-2 [Compound 59, 9-(difluoromethoxy)-4-[[(2S)-1,4-dioxan-2-yl]methoxy]-1-methyl-6,7-dihydrobenzo[a]quinolizin-2-one]
Cc1c2n(c(OC[C@@H]3COCCO3)cc1=O)CCc1cc(OC[C@@H]3COCCO3)ccc1-2 [Compound 62, 4,9-bis[[(2S)-1,4-dioxan-2-yl]methoxy]-1-methyl-6,7-dihydrobenzo[a]quinolizin-2-one]
Cc1c2n(c(OC[C@@H]3COCCO3)cc1=O)CCc1cc(Sc3ccccc3)ccc1-2 [Compound 64, 4-[[(2S)-1,4-dioxan-2-yl]methoxy]-1-methyl-9-phenylsulfanyl-6,7-dihydrobenzo[a]quinolizin-2-one]
Cc1c2n(c(OC[C@@H]3COCCO3)cc1=O)CCc1cc(N3CCN(S(C)(=O)=O)CC3)ccc1-2 [Compound 68]
Cc1c2n(c(OC[C@@H]3COCCO3)cc1=O)CCc1cc(C3=CCN(C(=O)OC(C)(C)C)CC3)ccc1-2 [Compound 74, tert-butyl 4-[4-[[(2S)-1,4-dioxan-2-yl]methoxy]-1-methyl-2-oxo-6,7-dihydrobenzo[a]qunolizin-9-yl]-3,6-dihydro-2H-pyridine-1-carboxylate]
Cc1c2n(c(OC[C@@H]3COCCO3)cc1=O)CCc1cc(C3CCN(C(=O)OC(C)(C)C)CC3)ccc1-2 [Compound 75, tert-butyl 4-[4-[[(2S)-1,4-dioxan-2-yl]methoxy]-1-methyl-2-oxo-6,7-dihydrobenzo[a]quinolizin-9-yl]piperidine-1-carboxylate]
COc1ccc2c(c1)CCn1c(OC[C@@H]3COCCO3)cc(=O)c(C)c1-2 [Compound 89, 4-[[(2S)-1,4-dioxan-2-yl]methoxy]-9-methoxy-1-methyl-6,7-dihydrobenzo[a]quinolizin-2-one]
Cc1c2n(c(OC[C@@H]3COCCO3)cc1=O)CCc1cc(N3CC(C)(C)C3)ccc1-2 [Compound 96, 9-(3,3-dimethylazetidin-1-yl)-4-[[(2S)-1,4-dioxan-2-yl]methoxy]-1-methyl-6,7-dihydrobenzo[a]quinolizin-2-one]
Cc1c2n(c(OC[C@@H]3COCCO3)cc1=O)CCc1cc(-c3cccc(F)c3)ccc1-2 [Compound 99, 4-[[(2S)-1,4-dioxan-2-yl]methoxy]-9-(3-fluorophenyl)-1-methyl-6,7-dihydrobenzo[a]quinolizin-2-one]
Cc1c2n(c(OC[C@@H]3COCCO3)cc1=O)CCc1cc(-c3ccncc3)ccc1-2 [Compound 100, 4-[[(2S)-1,4-dioxan-2-yl]methoxy]-1-methyl-9-(4-pyridyl)-6,7-dihydrobenzo[a]quinolizin-2-one]
Cc1c2n(c(OC[C@@H]3COCCO3)cc1=O)CCc1cc(-c3ccccn3)ccc1-2 [Compound 101, 4-[[(2S)-1,4-dioxan-2-yl]methoxy]-1-methyl-9-(2-pyridyl)-6,7-dihydrobenzo[a]quinolizin-2-one]
Cc1cccnc1-c1ccc2c(c1)CCn1c(OC[C@@H]3COCCO3)cc(=O)c(C)c1-2 [Compound 102, 4-[[(2S)-1,4-dioxan-2-yl]methoxy]-1-methyl-9-(3-methyl-2-pyridyl)-6,7-dihydrobenzo[a]quinolizin-2-one]
Cc1ccnc(-c2ccc3c(c2)CCn2c(OC[C@@H]4COCCO4)cc(=O)c(C)c2-3)c1 [Compound 103, 4-[[(2S)-1,4-dioxan-2-yl]methoxy]-1-methyl-9-(4-methyl-2-pyridyl)-6,7-dihydrobenzo[a]quinolizin-2-one]

IC50, 100 to 500 nM:
Cc1c2n(c(OC[C@@H]3COCCO3)cc1=O)CCc1cc(OS(C)(=O)=O)ccc1-2 [Compound 56, [4-[[(2S)-1,4-dioxan-2-yl]methoxy]-1-methyl-2-oxo-6,7-dihydrobenzo[a]quinolizin-9-yl] methanesulfonate]
Cc1c2n(c(OC[C@@H]3COCCO3)cc1=O)CCc1cc(S(=O)(=O)c3ccccc3)ccc1-2 [Compound 67, 9-(benzenesulfonyl)-4-[[(2S)-1,4-dioxan-2-yl]methoxy]-1-methyl-6,7-dihydrobenzo[a]quinolizin-2-one]
Cc1c2n(c(OC[C@@H]3COCCO3)cc1=O)CCc1cc(N(C)C(=O)C3CC3)ccc1-2 [Compound 73, N-[4-[[(2S)-1,4-dioxan-2-yl]methoxy]-1-methyl-2-oxo-6,7-dihydrobenzo[a]quinolizin-9-yl]-N-methyl-cyclopropanecarboxamide]
Cc1c2n(c(OC[C@@H]3COCCO3)cc1=O)CCc1cc(O)ccc1-2 [Compound 85, 4-[[(2S)-1,4-dioxan-2-yl]methoxy]-9-hydroxy-1-methyl-6,7-dihydrobenzo[a]quinolizin-2-one]
Cc1c2n(c(OC[C@@H]3COCCO3)cc1=O)CCc1cc(N3CC(C(C)(C)O)C3)ccc1-2 [Compound 92, 4-[[(2S)-1,4-dioxan-2-yl]methoxy]-9-[3-(1-hydroxy-1-methyl-ethyl)azetidin-1-yl]-1-methyl-6,7-dihydrobenzo[a]quinolizin-2-one]
COC(=O)C1CN(c2ccc3c(c2)CCn2c(OC[C@@H]4COCCO4)cc(=O)c(C)c2-3)C1 [Compound 97]
Cc1c2n(c(OC[C@@H]3COCCO3)cc1=O)CCc1cc(-c3cccnc3)ccc1-2 [Compound 98, 4-[[(2S)-1,4-dioxan-2-yl]methoxy]-1-methyl-9-(3-pyridyl)-6,7-dihydrobenzo[a]quinolizin-2-one]
